Experimental data taken from ChEMBL document CHEMBL3885881, “DrugMatrix”.

Organism: Rattus norvegicus
Test: DrugMatrix - Regimen: Daily Repeat
Type: toxicity, organism-based, Sprague-Dawley
Parameters: regimen Daily Repeat, gender Male, age 6-8 weeks
Conditions: in vivo, po, route oral GAVAGE, […]; for TOTAL PROTEIN / URIC ACID / ALANINE AMINOTRANSFERASE / ALBUMIN / ALKALINE PHOSPHATASE / ASPARTATE AMINOTRANSFERASE / BLOOD UREA NITROGEN / CARBON DIOXIDE / CHOLESTEROL / CREATINE PHOSPHOKINASE / CREATININE / GLUCOSE / LACTATE DEHYDROGENASE / LIPASE / TOTAL BILIRUBIN: tissue Plasma; for ABSOLUTE BASOPHIL / ABSOLUTE EOSINOPHIL / ABSOLUTE LYMPHOCYTE / ABSOLUTE MONOCYTE / ABSOLUTE SEGMENTED NEUTROPHIL / BASOPHIL / EOSINOPHIL / ERYTHROCYTE COUNT / HEMATOCRIT / HEMOGLOBIN / LEUKOCYTE COUNT / LYMPHOCYTE / MEAN CORPUSCULAR HEMOGLOBIN / MEAN CORPUSCULAR HEMOGLOBIN CONCENTRATION / MEAN CORPUSCULAR VOLUME / MONOCYTE / NEUTROPHIL / NUCLEATED RED BLOOD CELLS / PLATELET COUNT: tissue Blood
[1] = 32 mg/kg, 120 h, dose level M2, time 5 day
[2] = 64 mg/kg, 72 h, dose level High, time 3 day
[3] = 64 mg/kg, 120 h, dose level High, time 5 day

For `CC/C(=C(\c1ccccc1)c1ccc(OCCN(C)C)cc1)c1ccccc1` [TAMOXIFEN], the “TOTAL PROTEIN” value [1] was 6.4 G/DL, the “URIC ACID” value [1] was 2.17 mg/dL and the “ABSOLUTE BASOPHIL” value [2] was 0 CELLS/uL. For the same molecule, the “ABSOLUTE EOSINOPHIL” value [2] was 0 CELLS/uL, the “ABSOLUTE LYMPHOCYTE” value [2] was 5492.33 CELLS/uL and the “ABSOLUTE MONOCYTE” value [2] was 14 CELLS/uL. For the same molecule, the “ABSOLUTE SEGMENTED NEUTROPHIL” value [2] was 260.33 CELLS/uL, the BASOPHIL [2] was 0% and the EOSINOPHIL [2] was 0%. For the same molecule, the “ERYTHROCYTE COUNT” value [2] was 5.73 x10E6/uL, the HEMATOCRIT [2] was 35.43% and the HEMOGLOBIN [2] was 13.57 G/DL. For the same molecule, the “LEUKOCYTE COUNT” value [2] was 5.77 x10E3/uL, the LYMPHOCYTE [2] was 94.67% and the “MEAN CORPUSCULAR HEMOGLOBIN” value [2] was 23.73 pg. For the same molecule, the “MEAN CORPUSCULAR HEMOGLOBIN CONCENTRATION” value [2] was 38.3 G/DL, the “MEAN CORPUSCULAR VOLUME” value [2] was 62.03 fL and the MONOCYTE [2] was 0.33%. For the same molecule, the NEUTROPHIL [2] was 5%, the “NUCLEATED RED BLOOD CELLS” value [2] was 0 /100WBC and the “PLATELET COUNT” value [2] was 879.67 x10E3/uL. For the same molecule, the “ALANINE AMINOTRANSFERASE” value [2] was 151 u/L, the ALBUMIN [2] was 3.87 G/DL and the “ALKALINE PHOSPHATASE” value [2] was 492 u/L. For the same molecule, the “ASPARTATE AMINOTRANSFERASE” value [2] was 96.67 u/L, the “BLOOD UREA NITROGEN” value [2] was 10 mg/dL and the “CARBON DIOXIDE” value [2] was 30.33 mmol/L. For the same molecule, the CHOLESTEROL [2] was 38.33 mg/dL, the “CREATINE PHOSPHOKINASE” value [2] was 356.33 u/L and the CREATININE [2] was 0.11 mg/dL. The GLUCOSE [2] was 148 mg/dL, the “LACTATE DEHYDROGENASE” value [2] was 98 u/L and the LIPASE [2] was 10.67 u/L. For the same molecule, the “TOTAL BILIRUBIN” value [2] was 0.1 mg/dL, the “TOTAL PROTEIN” value [2] was 5.77 G/DL and the “URIC ACID” value [2] was 0.43 mg/dL. The “ABSOLUTE BASOPHIL” value [3] was 0 CELLS/uL, the “ABSOLUTE EOSINOPHIL” value [3] was 0 CELLS/uL and the “ABSOLUTE LYMPHOCYTE” value [3] was 6999 CELLS/uL. For the same molecule, the “ABSOLUTE MONOCYTE” value [3] was 72.33 CELLS/uL, the “ABSOLUTE SEGMENTED NEUTROPHIL” value [3] was 495.33 CELLS/uL and the BASOPHIL [3] was 0%. For the same molecule, the EOSINOPHIL [3] was 0%, the “ERYTHROCYTE COUNT” value [3] was 6.14 x10E6/uL and the HEMATOCRIT [3] was 38.5%. For the same molecule, the HEMOGLOBIN [3] was 14.9 G/DL, the “LEUKOCYTE COUNT” value [3] was 7.57 x10E3/uL and the LYMPHOCYTE [3] was 92.33%. The “MEAN CORPUSCULAR HEMOGLOBIN” value [3] was 24.27 pg, the “MEAN CORPUSCULAR HEMOGLOBIN CONCENTRATION” value [3] was 38.7 G/DL and the “MEAN CORPUSCULAR VOLUME” value [3] was 62.63 fL. The MONOCYTE [3] was 1%, the NEUTROPHIL [3] was 6.67% and the “NUCLEATED RED BLOOD CELLS” value [3] was 0.33 /100WBC. For the same molecule, the “PLATELET COUNT” value [3] was 1000.33 x10E3/uL, the “ALANINE AMINOTRANSFERASE” value [3] was 226.33 u/L and the ALBUMIN [3] was 3.63 G/DL. For the same molecule, the “ALKALINE PHOSPHATASE” value [3] was 346.67 u/L, the “ASPARTATE AMINOTRANSFERASE” value [3] was 140 u/L and the “BLOOD UREA NITROGEN” value [3] was 7.67 mg/dL. The “CARBON DIOXIDE” value [3] was 30 mmol/L, the CHOLESTEROL [3] was 43.33 mg/dL and the “CREATINE PHOSPHOKINASE” value [3] was 593 u/L. The CREATININE [3] was 0.12 mg/dL, the GLUCOSE [3] was 136.33 mg/dL and the “LACTATE DEHYDROGENASE” value [3] was 145.33 u/L. For the same molecule, the LIPASE [3] was 10.33 u/L, the “TOTAL BILIRUBIN” value [3] was 0.1 mg/dL and the “TOTAL PROTEIN” value [3] was 5.3 G/DL.
